Test results published in the supplement of paper PMC10290057.
Where a name gives a salt, the structure may show the parent alone.

The compounds below were run on HCT116 (assay: efficacy (fitted maximal change in viability relative to DMSO control); higher = less cytotoxic (negative = loss of viability)). Settings: 48 h.
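Note: Luminescence-based viability readout, five doses per compound, normalized against on-plate DMSO and empty-well controls, followed by dose-response curve fitting for every drug.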

Point of comparison: `COC(=O)[C@@H]1[C@H]2C[C@H]3c4[nH]c5ccccc5c4CCN3C[C@@H]2CC[C@@H]1O` [Yohimbine], efficacy -8.81%. Against it:
- C=C[C@H]1CN2CC[C@H]1C[C@H]2[C@H](O)c1ccnc2ccc(OC)cc12 — lower, -34.1%
- CN(CCOc1ccc(-c2ccc3c(c2)OCO3)cc1C(C)(C)C)CC(=O)O — lower, -58.3%
- CCOc1cc(CC(=O)N[C@@H](CC(C)C)c2ccccc2N2CCCCC2)ccc1C(=O)O [Repaglinide] — lower, -23%
- COC[C@@H](NC(C)=O)C(=O)NCc1ccccc1 [Lacosamide] — lower, -14.4%
- CN1CCN(C(=O)c2ccc(-c3ccc4c(C=O)c(O)ccc4c3)s2)CC1 [MKC-3946] — lower, -13.9%
- Cn1cc(-c2ccc3nnc(C(F)(F)c4ccc5ncccc5c4)n3n2)cn1 — lower, -26.2%
- O=C(O)Cc1cccc(OCCCN(Cc2cccc(C(F)(F)F)c2Cl)CC(c2ccccc2)c2ccccc2)c1 [GSK-3965] — lower, -71.2%
- COc1ccc(Nc2nccc(NCCO)n2)cc1 [Cardiogenol] — lower, -11.7%
- CCC(C)C(N)\C1=N\C(CS1)C(=O)N[C@@H](CC(C)C)C(=O)N[C@H](CCC(O)=O)C(=O)N[C@@H]([C@@H](C)CC)C(=O)N[C@H]2CCCCNC(=O)[C@H](CC(N)=O)NC(=O)[C@@H](CC(O)=O)NC(=O)[C@H](CC3=CN=C[NH]3)NC(=O)[C@@H](CC4=CC=CC=C4)NC(=O)[C@@H](NC(=O)[C@@H](CCCN)NC2=O)[C@@H](C)CC (some centres undefined) [Bacitracin (Zinc)] — lower, -26.9%
- CN1C(=O)COc2c(C(=O)NC3CN4CCC3CC4)cc(Cl)cc21 (centres undefined) [Azasetron hydrochloride] — higher, 21.5%
- CC(C)c1cccc(C(C)C)c1O [Propofol] — higher, -8.33%
- CCCCCCCN(CC)CCCC(O)c1ccc(N[S+](C)(=O)[O-])cc1 (centres undefined) [Ibutilide fumarate] — lower, -59.1%
- N[S+](=O)([O-])c1cc(Cl)c(Cl)c([S+](N)(=O)[O-])c1 [Diclofenamide] — lower, -19.2%
- CN1CCN(CC1)C2=C(NC(=O)C/3=C/NC(=O)/C=C3C(F)(F)F)C=C(C=C2)C4=CC(=CC=C4)CN5CCOCC5 [OICR-9429] — lower, -23.2%
- CC(C)C(=O)Nc1ccc([N+](=O)[O-])c(C(F)(F)F)c1 [Flutamide] — lower, -14.3%
- CCC(CCCC)COC(=O)C(\C#N)=C(\c1ccccc1)c2ccccc2 (centres undefined) [Octocrylene] — lower, -31.5%
- CCCCC[C@H](O)/C=C/[C@H]1[C@H](O)CC(=O)[C@@H]1C/C=C\CCCC(=O)O [Prostaglandin E2] — lower, -28.6%
- N[C@@H](CCC(=O)O)C(=O)N[C@@H](Cc1c[nH]c2ccccc12)C(=O)O [Oglufanide] — lower, -13.7%
- CCCC(CCC)C(=O)[O-] [Valproic acid sodium salt] — higher, 14%
- Cc1cc(Oc2ccc3nc(COc4ccc(CC5SC(=O)NC5=O)cc4)n(C)c3c2)cc(C)c1N (centres undefined) [Efatutazone] — lower, -24.7%
- CCC(CC)CC1(C(=O)Nc2ccccc2SC(=O)C(C)C)CCCCC1 [Dalcetrapib] — lower, -17.1%
- C=CC(=O)Nc1ccc(F)c(-c2ncnc3[nH]cc(C(=O)OCC)c23)c1 [JAK3i] — lower, -66%
- COC(=O)/C=C/C(=O)OC [Dimethyl fumarate] — lower, -18.4%
- CNC(=O)c1ccc2cc(C3(O)CCn4cncc43)ccc2c1 (centres undefined) [Orteronel] — higher, -5.91%
- Cn1cc(-c2c[nH]c3ncnc(N4CCOCC4)c23)cn1 — lower, -31.9%
- C/C=C(/C(=C/C)c1ccc(O)cc1)c1ccc(O)cc1 [Dienestrol] — lower, -63.7%
- CC[C@H]1OC(=O)[C@H](C)[C@@H](O[C@H]2C[C@@](C)(OC)[C@@H](O)[C@H](C)O2)[C@H](C)[C@@H](O[C@@H]2O[C@H](C)C[C@H](N(C)C)[C@H]2O)[C@](C)(O)C[C@@H](C)CN(C)[C@H](C)[C@@H](O)[C@]1(C)O [Azithromycin] — lower, -20.7%
- COc1ccc(C(=O)N2CCCC2=O)cc1 [Aniracetam] — lower, -17.4%
- CO[C@H]1C[C@@H]2CC[C@@H](C)[C@@](O)(O2)C(=O)C(=O)N2CCCC[C@H]2C(=O)O[C@H]([C@@H](C)C[C@@H]2CC[C@@H](O)[C@H](OC)C2)CC(=O)[C@H](C)/C=C(\C)[C@@H](O)[C@@H](OC)C(=O)[C@H](C)C[C@H](C)/C=C/C=C/C=C/1C [Sirolimus] — lower, -50.3%
- CCCNC(=O)Nc1ccc(Oc2ncnc3cc(OC)c(OC)cc23)cc1Cl [KRN-633] — lower, -12.8%
- O=C(NOCCO)c1cc(CN2OCCCC2=O)c(F)c(F)c1Nc1ccc(I)cc1F — lower, -60.6%
- CC(C)[C@H](N)C(=O)OCCOC[N]1C=NC2=C1\N=C(N)/NC2=O [Valaciclovir] — higher, 8.42%
- CC(C)c1cnn2c(NCc3ccccc3)cc(NCCCCCCN)nc12 [BS-181] — lower, -106%
- N=C(N)NN.N=C(N)NN.O=S(=O)(O)O [AMINOGUANIDINE HYDROCHLORIDE] — lower, -9.44%
- CC[C@H](NC1=C2N=C[NH]C2=NC=N1)C/3=N/C4=C(C(=CC=C4)F)C(=O)N3C5=CC=CC=C5 [Idelalisib] — lower, -25.3%
- CCc1ccc(CCOc2ccc(CC3SC(=O)NC3=O)cc2)nc1 (centres undefined) [Pioglitazone hydrochloride] — higher, 16.5%
- Cc1cn2cc(C(=O)N(C)CCO)cc(N[C@@H]3CCOc4cccc(C)c43)c2n1 — lower, -27.6%
- Fc1cccc(-n2cnc3c(NCc4nc5ccc(F)c(F)c5[nH]4)nc(N4CCOCC4)nc32)c1 [SR-3029] — lower, -53.1%
- Cn1ccc2cc3c(cc21)CCN3C(=O)Nc1cccnc1 — lower, -22.8%
- CCNC(=O)Nc1ncc(-c2cc(-c3c(C)cc(OC)cc3C)nc(-c3cnccn3)n2)s1 [BMS-4] — higher, 14%
- CC1Cc2ccccc2N1NC(=O)c1ccc(Cl)c([S+](N)(=O)[O-])c1 (centres undefined) [Indapamide] — lower, -9.36%
- CC(C)OC(=O)/C1=C/N(CC(C)(C)C2=C1[NH]C3=CC=CC=C23)C(=O)C4=CC=C(F)C(=C4)F [Turofexorate isopropyl] — lower, -17.9%
- CC(NCCc1ccc(O)cc1)C(O)c1ccc(O)cc1 (centres undefined) [Ritodrine hydrochloride] — lower, -19.4%
- CCCC[C@@H](C=O)NC(=O)[C@H](CC(C)C)NC(=O)OCc1ccccc1 [Calpeptin] — lower, -29.4%
- O=C1O[C@]2(CC[C@@H](C(=O)Nc3ccn(-c4ccccc4F)n3)CC2)c2cnccc21 [MK-0557] — lower, -11.9%
- [2H]C([2H])(Nc1nc(-c2ccccc2C([2H])(C([2H])([2H])[2H])C([2H])([2H])[2H])ncc1C)c1ccc(-n2ccnn2)cc1 [ML-323] — lower, -36.2%
- C[S+](=O)([O-])OCCCCO[S+](C)(=O)[O-] [Busulfan] — higher, -5.76%
- Cc1ccc(Nc2cc(N[C@@H]3CCCC[C@@H]3N)nnc2C(N)=O)nc1C [RO-9021] — lower, -74.9%
- CCOc1cc(/C=C2/C(=O)N(c3ccccc3)N=C2C)cc(Cl)c1OCC(=O)OC — lower, -22.5%
- C[C@@H]1CCN(C(=O)N2CCCC2)C[C@@H]1N(C)c1ncnc2[nH]ccc12 — lower, -8.82%
- Cc1coc2c1C(=O)C(=O)c1c-2ccc2c1CCCC2(C)C [Tanshinone IIA] — lower, -14.6%
- NCCc1ccc(O)c(O)c1 [Dopamine hydrochloride] — lower, -16.8%
- O=c1oc2cc(O)ccc2s1 [Tioxolone] — higher, -6.66%
- O=C(Nc1cc(Oc2cc(F)c(NC(=O)C3(C(=O)Nc4ccc(F)cc4)CC3)cc2F)ccn1)C1CC1 [Altiratinib] — lower, -68.8%
- CCOC(=O)O[C@@]1(CC[C@H]2[C@@H]3CCC/4=C/C(=O)/C=C\[C@]4(C)[C@H]3[C@@H](O)C[C@]12C)C(=O)OCCl [Loteprednol etabonate] — lower, -16%
- CC(=O)N[C@H]1[C@H](O[C@@H]2c3ccc(c(Cl)c3)Oc3cc4cc(c3O[C@@H]3O[C@H](CO)[C@@H](O)[C@H](O)[C@H]3NC(=O)CCCCCCCC(C)C)Oc3ccc(cc3Cl)C[C@H]3NC(=O)[C@H](N)c5ccc(O)c(c5)Oc5cc(O)cc(c5)[C@H](NC3=O)C(=O)N[C@H]4C(=O)N[C@H]3C(=O)N[C@@H]2C(=O)N[C@@H](C(=O)O)c2cc(O)cc(O[C@H]4O[C@H](CO)[C@@H](O)[C@H](O)[C@@H]4O)c2-c2cc3ccc2O)O[C@H](CO)[C@@H](O)[C@@H]1O [Teicoplanin] — lower, -14.5%
- N[S+](=O)([O-])c1cc2c(cc1Cl)NC(C(Cl)Cl)N[S+]2(=O)[O-] (centres undefined) [Trichlormethiazide] — higher, 6.79%
- CCN1CCCC1CNC(=O)c1cc([S+](=O)([O-])CC)c(N)cc1OC (centres undefined) [Amisulpride] — higher, -6.46%
- COc1cc(CNC(=O)CCCC/C=C/C(C)C)ccc1O [Capsaicin] — lower, -16.7%
- CC(C)c1ccc2oc3nc(N)c(C(=O)O)cc3c(=O)c2c1 [Amlexanox] — lower, -24.9%
- CC(C)(C)C(=O)CN1C(=O)[C@H](NC(=O)Nc2cccc(C(=O)O)c2)CN(C2CCCCC2)c2ccccc21 [Nastorazepide] — higher, -4.67%
- NC(=O)c1cc(F)cc2c1C(=O)N(C1CCN(C3CCC(F)(F)CC3)CC1)C2 [NMS-P118] — lower, -18.7%
- O=C(NCC1CCCCN1)c1cc(OCC(F)(F)F)ccc1OCC(F)(F)F (centres undefined) [Flecainide acetate] — lower, -24.2%
- COC1CCN(CC1)C(=O)C2=CC(=CC=C2F)CC/3=N/NC(=O)C4=CC=CC=C34 [AZD-2461] — lower, -29.2%
- CCCCC(F)(F)[C@@]1(O)CC[C@H]2[C@@H](CC(=O)[C@@H]2CCCCCCC(=O)O)O1 [Lubiprostone] — higher, -6.29%
- N[S+]([O-])(=O)OC1=CC=C2\C3=C(CCCCC3)/C(=O)OC2=C1 [Irosustat (STX-64)] — lower, -30.6%
- C/C1=C2/[N]3[Co+]456([OH])<-[N]7=C1[C@@H](CCC(N)=O)C(C)(C)/C7=C/C1=[N]->4C(=C(/C)C4=[N]->5[C@@](C)([C@H]3[C@H](CC(N)=O)[C@@]2(C)CCC(=O)NC[C@@H](C)OP(=O)([O-])O[C@H]2[C@@H](O)[C@@H](n3c[n]->6c5cc(C)c(C)cc53)O[C@@H]2CO)[C@@](C)(CC(N)=O)[C@@H]4CCC(N)=O)/[C@@](C)(CC(N)=O)[C@@H]1CCC(N)=O [Hydroxocobalamin] — lower, -39.6%
- CC(C)C[C@H](CC(=O)O)C(=O)N[C@@H](Cc1c[nH]c2ccccc12)C(=O)N[C@@H](C)c1ccccc1 [GM-1489] — higher, 10.9%
